The molecules below were run against PIK3CD (Human) (UniProt O00329) (assay: Assessment of PIK3CD Kinase Activity).
PIK3CD (Human), sequence (O00329 whole entry, looked up): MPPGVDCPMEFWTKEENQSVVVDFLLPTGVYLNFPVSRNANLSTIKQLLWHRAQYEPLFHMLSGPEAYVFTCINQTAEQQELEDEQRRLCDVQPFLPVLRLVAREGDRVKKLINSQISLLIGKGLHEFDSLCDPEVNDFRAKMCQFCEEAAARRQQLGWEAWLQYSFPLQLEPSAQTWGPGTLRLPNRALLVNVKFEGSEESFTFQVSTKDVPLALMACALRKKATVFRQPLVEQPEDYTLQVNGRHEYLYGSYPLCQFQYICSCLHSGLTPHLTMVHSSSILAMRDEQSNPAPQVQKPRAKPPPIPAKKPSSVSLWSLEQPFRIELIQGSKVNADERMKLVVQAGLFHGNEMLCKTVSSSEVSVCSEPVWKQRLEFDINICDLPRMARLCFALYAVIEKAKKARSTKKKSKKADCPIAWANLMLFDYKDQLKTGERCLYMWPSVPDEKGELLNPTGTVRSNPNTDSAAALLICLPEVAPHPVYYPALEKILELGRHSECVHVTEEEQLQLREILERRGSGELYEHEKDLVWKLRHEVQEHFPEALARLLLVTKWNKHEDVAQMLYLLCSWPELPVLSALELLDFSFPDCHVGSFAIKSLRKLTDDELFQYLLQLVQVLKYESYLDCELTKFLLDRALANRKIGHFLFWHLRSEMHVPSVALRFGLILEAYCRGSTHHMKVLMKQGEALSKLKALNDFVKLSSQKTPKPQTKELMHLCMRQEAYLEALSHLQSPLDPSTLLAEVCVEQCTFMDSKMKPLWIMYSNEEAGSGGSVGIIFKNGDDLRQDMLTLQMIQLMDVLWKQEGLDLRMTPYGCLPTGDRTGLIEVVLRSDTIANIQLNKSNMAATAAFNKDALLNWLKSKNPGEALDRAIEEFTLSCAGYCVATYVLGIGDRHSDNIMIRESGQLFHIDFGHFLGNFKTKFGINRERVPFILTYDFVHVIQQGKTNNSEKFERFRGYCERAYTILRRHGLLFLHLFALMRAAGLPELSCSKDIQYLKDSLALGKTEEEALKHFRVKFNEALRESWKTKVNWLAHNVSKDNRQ

IC50, ≤ 0.1 µM:
NC(=O)C1CCN(Cc2cc3nc(-c4cccc5[nH]ncc45)nc(N4CCOCC4)c3s2)CC1
OC1(c2nccs2)CCN(Cc2cc3nc(-c4cccc5[nH]ncc45)nc(N4CCOCC4)c3s2)CC1
c1cc(-c2nc(N3CCOCC3)c3sc(CN4CCC(Cn5ccnc5)CC4)cc3n2)c2cn[nH]c2c1
c1cncc(CN2CCN(Cc3cc4nc(-c5cccc6[nH]ncc56)nc(N5CCOCC5)c4s3)CC2)c1
OCC1CCN(Cc2cc3nc(-c4cccc5[nH]ncc45)nc(N4CCOCC4)c3s2)CC1
CC(C)(CO)N1CCN(Cc2cc3nc(-c4cccc5[nH]ncc45)nc(N4CCOCC4)c3s2)CC1
COCCCS(=O)(=O)C1CCN(Cc2cc3nc(-c4cccc5[nH]ncc45)nc(N4CCOCC4)c3s2)CC1
c1cc(-c2nc(N3CCOCC3)c3sc(CN4CCN(c5nccs5)CC4)cc3n2)c2cn[nH]c2c1
c1cc(-c2nc(N3CCOCC3)c3sc(CN4CCC(N5CCOCC5)CC4)cc3n2)c2cn[nH]c2c1
Cc1cccc(CN2CCN(Cc3cc4nc(-c5cccc6[nH]ncc56)nc(N5CCOCC5)c4s3)CC2)n1
c1cc(-c2nc(N3CCOCC3)c3sc(CN4CCC(N5CCOCC5)CC4)cc3n2)c2cc[nH]c2c1
c1ccc(NC2CCN(Cc3cc4nc(-c5cccc6[nH]ncc56)nc(N5CCOCC5)c4s3)CC2)nc1
CN1CCN(Cc2cc3nc(-c4cccc5nn(C)cc45)nc(N4CCOCC4)c3s2)CC1
CC(C)(C(N)=O)N1CCN(Cc2cc3nc(-c4cccc5[nH]ncc45)nc(N4CCOCC4)c3s2)CC1
[O-][n+]1ccccc1CN1CCN(Cc2cc3nc(-c4cccc5[nH]ncc45)nc(N4CCOCC4)c3s2)CC1
c1cc(-c2nc(N3CCOCC3)c3sc(CN4CCN(Cc5nccs5)CC4)cc3n2)c2cn[nH]c2c1
COCC1CCCN(Cc2cc3nc(-c4cccc5[nH]ncc45)nc(N4CCOCC4)c3s2)C1 (configuration not stated)
c1cc(-c2nc(N3CCOCC3)c3sc(CN4CCC(N5CCCCC5)CC4)cc3n2)c2cn[nH]c2c1
Cc1cc(CN2CCN(Cc3cc4nc(-c5cccc6[nH]ncc56)nc(N5CCOCC5)c4s3)CC2)no1
c1cc(-c2nc(N3CCOCC3)c3sc(CN4CCOCC4)cc3n2)c2cn[nH]c2c1
c1ccc(OC2CCN(Cc3cc4nc(-c5cccc6[nH]ncc56)nc(N5CCOCC5)c4s3)CC2)nc1
OC(COc1ccccc1)CN1CCN(Cc2cc3nc(-c4cccc5[nH]ncc45)nc(N4CCOCC4)c3s2)CC1 (configuration not stated)
O=C(N1CCOCC1)N1CCN(Cc2cc3nc(-c4cccc5[nH]ccc45)nc(N4CCOCC4)c3s2)CC1
OCCN1CCN(Cc2cc3nc(-c4cccc5[nH]ncc45)nc(N4CCOCC4)c3s2)CC1
O=C1CN(Cc2cc3nc(-c4cccc5[nH]ncc45)nc(N4CCOCC4)c3s2)CCN1CCO
OCC1CCCN(Cc2cc3nc(-c4cccc5[nH]ncc45)nc(N4CCOCC4)c3s2)C1 (configuration not stated)
c1cc(-c2nc(N3CCOCC3)c3sc(CN4CCN(Cc5cnc[nH]5)CC4)cc3n2)c2cn[nH]c2c1
c1ccc(N2CCN(Cc3cc4nc(-c5cccc6[nH]ncc56)nc(N5CCOCC5)c4s3)CC2)nc1
CNC(=O)C1CCCN(Cc2cc3nc(-c4cccc5[nH]ncc45)nc(N4CCOCC4)c3s2)C1 (configuration not stated)
Cc1ccc(CN2CCN(Cc3cc4nc(-c5cccc6[nH]ncc56)nc(N5CCOCC5)c4s3)CC2)o1
CC1CCCN(Cc2cc3nc(-c4cccc5[nH]ncc45)nc(N4CCOCC4)c3s2)C1 (configuration not stated)
C[C@@H]1CN(C)C[C@H](C)N1Cc1cc2nc(-c3cccc4[nH]ncc34)nc(N3CCOCC3)c2s1
OCCC1CCN(Cc2cc3nc(-c4cccc5[nH]ncc45)nc(N4CCOCC4)c3s2)CC1
CN(C)CC1CCN(Cc2cc3nc(-c4cccc5[nH]ncc45)nc(N4CCOCC4)c3s2)CC1
CN1CCN(Cc2cc3nc(-c4cc(F)cc5[nH]ncc45)nc(N4CCOCC4)c3s2)CC1
CN(C)S(=O)(=O)N1CCN(Cc2cc3nc(-c4cccc5[nH]ncc45)nc(N4CCOCC4)c3s2)CC1
COCC1CN(Cc2cc3nc(-c4cccc5[nH]ncc45)nc(N4CCOCC4)c3s2)CCN1S(C)(=O)=O (configuration not stated)
COCCN(C)C1CCN(Cc2cc3nc(-c4cccc5[nH]ccc45)nc(N4CCOCC4)c3s2)CC1
CC(C)(O)C1CCN(Cc2cc3nc(-c4cccc5[nH]ncc45)nc(N4CCOCC4)c3s2)CC1
CN(C)C1CCN(Cc2cc3nc(-c4cccc5[nH]ccc45)nc(N4CCOCC4)c3s2)CC1
c1ccc(CN2CCN(Cc3cc4nc(-c5cccc6[nH]ncc56)nc(N5CCOCC5)c4s3)CC2)nc1
CN(C1CCN(Cc2cc3nc(-c4cccc5[nH]ncc45)nc(N4CCOCC4)c3s2)CC1)S(C)(=O)=O
COCCN1[C@H](C)CN(Cc2cc3nc(-c4cccc5[nH]ncc45)nc(N4CCOCC4)c3s2)C[C@@H]1C
c1cc(-c2nc(N3CCOCC3)c3sc(CN4CCC(CN5CCOCC5)CC4)cc3n2)c2cn[nH]c2c1
CN(C)C(=O)CN1CCN(Cc2cc3nc(-c4cccc5[nH]ncc45)nc(N4CCOCC4)c3s2)CC1
COCCN(C1CCN(Cc2cc3nc(-c4cccc5[nH]ncc45)nc(N4CCOCC4)c3s2)CC1)S(C)(=O)=O
COCCN(C)C1CCCN(Cc2cc3nc(-c4cccc5[nH]ncc45)nc(N4CCOCC4)c3s2)C1 (configuration not stated)
Cn1ccnc1CN1CCN(Cc2cc3nc(-c4cccc5[nH]ncc45)nc(N4CCOCC4)c3s2)CC1
COCCN(CC(F)(F)F)C1CCN(Cc2cc3nc(-c4cccc5[nH]ncc45)nc(N4CCOCC4)c3s2)CC1
COCCN(C)C(=O)N1CCN(Cc2cc3nc(-c4cccc5[nH]ccc45)nc(N4CCOCC4)c3s2)CC1
CCC(CC)(COC)N1CCN(Cc2cc3nc(-c4cccc5[nH]ncc45)nc(N4CCOCC4)c3s2)CC1
COCCCN(C)C1CCN(Cc2cc3nc(-c4cccc5[nH]ncc45)nc(N4CCOCC4)c3s2)CC1
COCCN(CC1CC1)C1CCN(Cc2cc3nc(-c4cccc5[nH]ncc45)nc(N4CCOCC4)c3s2)CC1
c1cc(-c2nc(N3CCOCC3)c3sc(CN4CCNCC4)cc3n2)c2cc[nH]c2c1
COCCC1CCN(Cc2cc3nc(-c4cccc5[nH]ncc45)nc(N4CCOCC4)c3s2)CC1
C[C@@H]1CN(Cc2cc3nc(-c4cccc5[nH]ncc45)nc(N4CCOCC4)c3s2)C[C@H](C)N1Cc1ccccn1
COCCN1CCN(Cc2cc3nc(-c4cccc5[nH]ncc45)nc(N4CCOCC4)c3s2)CC1
COCC(C)(C)N1CCN(Cc2cc3nc(-c4cccc5[nH]ncc45)nc(N4CCOCC4)c3s2)CC1
CS(=O)(=O)N1CCN(Cc2cc3nc(-c4cccc5[nH]ncc45)nc(N4CCOCC4)c3s2)CC1CO (configuration not stated)
COCCN(C)C(=O)N1CCN(Cc2cc3nc(-c4cccc5[nH]ncc45)nc(N4CCOCC4)c3s2)CC1
[O-][n+]1cccc(CN2CCN(Cc3cc4nc(-c5cccc6[nH]ncc56)nc(N5CCOCC5)c4s3)CC2)c1
OC1(Cc2ccccn2)CCN(Cc2cc3nc(-c4cccc5[nH]ncc45)nc(N4CCOCC4)c3s2)CC1
CN1CCN(Cc2cc3nc(-c4cccc5c4cnn5C)nc(N4CCOCC4)c3s2)CC1
CNC(=O)[C@@H]1CCCN(Cc2cc3nc(-c4cccc5[nH]ncc45)nc(N4CCOCC4)c3s2)C1
CN(C)CCCS(=O)(=O)N1CCN(Cc2cc3nc(-c4cccc5[nH]ncc45)nc(N4CCOCC4)c3s2)CC1
COCC1(N2CCN(Cc3cc4nc(-c5cccc6[nH]ncc56)nc(N5CCOCC5)c4s3)CC2)CC1
COCCOC1CCN(Cc2cc3nc(-c4cccc5[nH]ncc45)nc(N4CCOCC4)c3s2)CC1
CC(C)(O)CN1CCN(Cc2cc3nc(-c4cccc5[nH]ncc45)nc(N4CCOCC4)c3s2)CC1
c1cc(-c2nc(N3CCOCC3)c3sc(CN4CCN(CC5CC5)CC4)cc3n2)c2cn[nH]c2c1
COCCN(C)C(=O)C1CCN(Cc2cc3nc(-c4cccc5[nH]ncc45)nc(N4CCOCC4)c3s2)CC1
COCCN(Cc1nccs1)C1CCN(Cc2cc3nc(-c4cccc5[nH]ncc45)nc(N4CCOCC4)c3s2)CC1
O=S(=O)(CCCN1CCOCC1)N1CCN(Cc2cc3nc(-c4cccc5[nH]ncc45)nc(N4CCOCC4)c3s2)CC1
CN(CCCS(C)(=O)=O)C1CCN(Cc2cc3nc(-c4cccc5[nH]ncc45)nc(N4CCOCC4)c3s2)CC1
c1cc(-c2nc(N3CCOCC3)c3sc(CN4CCN(Cc5cscn5)CC4)cc3n2)c2cn[nH]c2c1
CNC(=O)C(C)(C)N1CCN(Cc2cc3nc(-c4cccc5[nH]ncc45)nc(N4CCOCC4)c3s2)CC1
OCCN1CCN(Cc2cc3nc(-c4cccc5[nH]ccc45)nc(N4CCOCC4)c3s2)CC1
Cc1csc(CN2CCN(Cc3cc4nc(-c5cccc6[nH]ncc56)nc(N5CCOCC5)c4s3)CC2)n1

Reference: the Kinase Knowledgebase extract (Sharma et al. 2016)
